Read-outs that look alike come from different tables or passages of the source.
How the values were obtained:
[1] = tested on: HSV-1 strain F; test: Time of addition cytopathic effect (CPE) inhibition assay; assay type: cell-based; details: for Antiherpetic activity in the in vitro assays: CPE inhibition, all stages, #28 at 10 µg/mL, #29 at 1 µg/mL
[2] = tested on: VERO cells; test: Cytotoxicity of ACs, WST-1, 24 h; details: for Toxicity at the highest concentration tested compared with DMSO control: 100 µg/mL; for Highest Concentration with Cell Viability above 75%: 24 h, WST-1, tested 0.1-100 µg/mL; for Toxicity to the cells: 10 µg/mL
[3] = Cytotoxicity of ACs, WST-1, 24 h; details: African green monkey, VERO cells
[4] = tested on: HSV-1; details: cited from earlier work
[5] = tested on: HSV-1 strain F; test: Plaque reduction dose-response assay in VERO cells; assay type: cell-based; details: for EC50: Human alphaherpesvirus 1, plaque reduction
[6] = tested on: HSV-1; test: Pre-treatment of cells with AC#7 before HSV-1 infection (Figure S2); assay type: cell-based
[7] = tested on: VERO cells; test: Toxicity of AC#7 on VERO cells at high concentration (800 µM, 2 h exposure, 46 h); details: viability 46 h later, WST-1
[8] = in vitro; details: African green monkey
[9] = tested on: ACV-resistant HSV-1; design: method as in PMID 9660995; details: in vivo; cited from earlier work
[10] = tested on: SARS-CoV 3CLpro; details: cited from earlier work

## O=C(CC1NC(=O)c2ccccc21)Nc1ccc2c(c1)C(=O)N1CCC[C@H]1C(=O)N2 (stereo partly drawn) [AC#28, N-((S)-5,11-dioxo-2,3,5,10,11,11a-hexahydro-1H-benzo[e]pyrrolo[1,2-a][1,4]diazepin-7-yl)-2-(3-oxoisoindolin-1-yl)acetamide]
[1]
  Antiherpetic activity in the in vitro assays: failed to show antiherpetic activity
[2]
  Toxicity at the highest concentration tested compared with DMSO control: negligible toxicity
  Highest Concentration with Cell Viability above 75%: >100 µg/mL
[3]
  viability at 24 h: 105%

## C[C@H]1CCC[C@]2(C)C[C@H]3OC(=O)[C@H](CN4CCN(c5ccccc5)CC4)[C@H]3[C@@H]3O[C@@]132 [AC#16, (1Ar,2S,5Ar,6Ar,9S,9Ar,9Bs)-2,5a-dimethyl-9-((4-phenylpiperazin-1-yl)methyl)octahydro-2H-oxireno[2′,3′:4,4a]naphtho[2,3-b]furan-8(9Bh)-one]
[2]
  Toxicity to the cells: exhibited toxicity
  Highest Concentration with Cell Viability above 75%: 1 µg/mL
[3]
  viability at 24 h: 102%

## Nc1nc2c(ncn2COCCO)c(=O)[nH]1 [ACV, 9-((2-Hydroxyethoxy)methyl) guanine, reference compound]
[4]; in vitro
  EC50: ~1 µM
[5]; added post-HSV infection, VERO, R2 > 0.99
  EC50: 0.77 µM

## O=C(/C=C1\NCCc2cc3c(cc21)OCO3)c1cc2ccccc2o1 [AC#7, 1-(1-benzofuran-2-yl)-2-[(5Z)-2H,6H,7H,8H-[1,3]dioxolo [4,5-g]isoquinoline-5-ylidene]ethenone]
[1]; 10 µg/mL, virus preincubated with AC 1 h, MOI 5, VERO, vs DMSO control
  Antiviral activity at the viral inactivation stage: significantly higher activity than the DMSO control
[2]
  Toxicity at the highest concentration tested compared with DMSO control: negligible toxicity
  Highest Concentration with Cell Viability above 75%: >100 µg/mL
[3]
  viability at 24 h: 124%
[5]; 25 µM, virus preincubated 1 h, VERO
  Reduction of virus-induced plaques compared to DMSO control: significantly reduced the number of virus-induced plaques
[5]; 6.25-400 µM, pre-incubated with the virus, vs DMSO control
  Dose dependence of antiviral response: dose-dependent antiviral response
[5]; virus preincubated with AC 1 h, VERO
  EC50: 61 µg/mL
[5]; virus preincubated with AC 1 h, VERO, asymmetric nonlinear regression R2 = 0.84
  EC50: 183 µM
[6]; 10 µg/mL, 1 h before infection, MOI 5, VERO
  Antiviral activity when cells were preincubated with AC prior to HSV-1 infection: No antiviral activity
[6]; 10 µg/mL, cells pre-treated 1 h, MOI=5, 48 h
  Cell survival rate: 7.7%
[6]; Human alphaherpesvirus 1, cells pre-treated 1 h, MOI=5, 48 h
  inhibition at 10 µg/mL: 0%
[7]
  Toxicity to VERO cells: Negligible toxicity

## Cc1cc(O)c2c(c1)C(=O)c1cc(O)cc(O)c1C2=O [emodin]
[4]; antiviral activity
  EC50: 21.5 to 195 µM

## O=C1NC(=O)c2c1c1c3ccccc3[nH]c1c1[nH]c3ccccc3c21 [AC#29, Arcyriaflavin A]
[1]
  Antiherpetic activity in the in vitro assays: failed to show antiherpetic activity
[8]
  viability at 24 h: 86.2%

## COc1cc(/C=C/C(=O)CC(=O)/C=C/c2ccc(O)c(OC)c2)ccc1O [curcumin]
[4]; antiviral activity
  EC50: 89.6 µM

## O=c1c(-c2c3cn[nH]c3nc3c2oc2cc(O)ccc23)cc2cccc3c2n1CC3 [AC#27]
[1]; 10 µg/mL, AC added 1 h after infection, MOI 5, VERO
  Antiviral activity at the post-entry stage: possess antiherpetic activity
[2]
  Toxicity at the highest concentration tested compared with DMSO control: negligible toxicity
  Highest Concentration with Cell Viability above 75%: >100 µg/mL
[3]
  viability at 24 h: 106%

## O=C(O[C@@H]1Cc2c(O)cc(O)cc2O[C@@H]1c1cc(O)c(O)c(O)c1)c1cc(O)c(O)c(O)c1 [epigallocatechin gallate]
[4]; antiviral activity
  EC50: 12.5 to 50 µM

## Cc1ccc(Cl)cc1N1CCN(C[C@H]2C(=O)O[C@@H]3C[C@@]4(C)CCC[C@H](C)[C@@]45O[C@H]5[C@@H]32)CC1 [AC#17, (1Ar,2S,5Ar,6Ar,9S,9Ar,9Bs)-9-( (4-(5-chloro-2-methylphenyl)piperazin-1-yl)methyl)-2,5a-dimethyloctahydro-2H-oxireno[2′,3′:4,4a]naphtho[2,3-b]furan-8(9Bh)-one]
[2]
  Toxicity to the cells: exhibited toxicity
  Highest Concentration with Cell Viability above 75%: 1 µg/mL
[3]
  viability at 24 h: 96.8%

## CC[C@@H](NC(=O)[C@@H](CC(=O)[C@@H](CC(=O)[C@@H](NC(=O)[C@H](C(C)C)N(C)C(=O)[C@H](C)CC1CCCCC1)C(C)(C)C)CC(=O)C(C)(C)C)C1(C(=O)O)CCCC1)C(C)(C)C [BILD 1633 SE]
[4]; in vitro
  Antiviral activity in vitro relative to ACV: higher antiviral activity than ACV
[9]
  Therapeutic effect against ACV-resistant HSV-1 infections: potent therapeutic effect

## CN1CCN(C(=O)CCn2c3c(c4ccccc42)CCn2c-3nc3ccccc3c2=O)CC1 [AC#10, 13-[3-(4-methylpiperazin-1-yl)-3-oxopropyl]-8,13-dihydroindolo[2′,3′:3,4] pyrido [2,1-b]quinazolin-5(7H)-one]
[2]
  Toxicity to the cells: exhibited toxicity
  Highest Concentration with Cell Viability above 75%: 1 µg/mL
[3]
  viability at 24 h: 73.2%

## CCOC(=O)/C=C/[C@H](C[C@@H]1CCNC1=O)NC(=O)[C@@H](CC(=O)[C@@H](NC(=O)c1cc(C)on1)C(C)C)Cc1ccc(F)cc1 [rupintrivir]
[10]
  Inhibition of SARS-CoV 3CLpro: weak to undetectable inhibition

Reference: paper PMC8955139, “Identifying HSV-1 Inhibitors from Natural Compounds via Virtual Screening Targeting Surface Glycoprotein D” (Pharmaceuticals, 2022)
